Experimental data reported in patent US12552938B2, “Deuterated fluorophores” (HOWARD HUGHES MEDICAL INSTITUTE, priority 2018, dated 2026).
Entries after “also recorded” stand apart in the source; their conditions may differ. Where a name gives a salt, the structure may show the parent alone. Each block holds one compound with its values, some of them ahead of it.

Columns and labels:
[1] = photobleaching of free dyes in vitro; format: physicochemical; details: for photobleaching / in vitro photostability compared to nondeuterated parent: free dye, 10 mM HEPES pH 7.3; for blue-shift of fluorescence emission during photobleaching due to dealkylation: spectra taken periodically during photobleaching; for chromostability during bleaching: compared to nondeuterated compounds 15 and 17
[2] = spectral properties of free dyes (absorbance, fluorescence emission, ε, Φ, intrinsic brightness); format: physicochemical; details: 10 mM HEPES pH 7.3; for extinction coefficient (ε) compared to nondeuterated parent / fluorescence quantum yield (Φ) compared to nondeuterated parent / intrinsic brightness (ε×Φ): free dye; for intrinsic brightness (ε×Φ): in vitro
[3] = relative singlet oxygen quantum yield of free dyes; format: physicochemical; details: free dye
HaloTag protein [4] = test: relative singlet oxygen quantum yield of HaloTag-bound ligands; format: physicochemical
histone H2B-HaloTag = test: fluorescence lifetime in live cells measured using FLIM; format: cell-based; details: histone H2B-HaloTag-bound
Sox2-HaloTag fusions = test: live-cell single-particle tracking of HaloTag ligands; format: cell-based; details: HaloTag conjugates; for brightness in cells (photons/s): equivalent imaging conditions
HaloTag protein [5] = test: fluorescence quantum yield of HaloTag-bound ligands in vitro; format: physicochemical; details: attached to HaloTag protein
Experimental: These dyes were then tested as protein conjugates in vitro and in living cells. […] Both J ligands could label HaloTag-histone H2B fusions in living cells (FIG. 24, FIG. 25).

[6] = system: histone H2B-HaloTag fusion; test: labeling of cells expressing histone H2B-HaloTag fusion and imaging; format: cell-based, mammalian cell; details: 10 pM, 30 min, washed 30 minutes
[7] = deuterated vs nondeuterated TMR

SMILES: [2H]C([2H])([2H])N(c1ccc2c(-c3ccccc3C(=O)[O-])c3ccc(=[N+](C([2H])([2H])[2H])C([2H])([2H])[2H])cc-3oc2c1)C([2H])([2H])[2H] [Compound 14, 2-(3,6-Bis(bis(methyl-d3)amino)xanthylium-9-yl)benzoate]
photobleaching / in vitro photostability compared to nondeuterated parent [1]: slower rate of photobleaching | absorption and emission maxima / spectral shape compared to nondeuterated parent [2]: remarkably similar | increase in extinction coefficient at λmax (ε) compared to 1 [2, 7]: ~20% | increase in fluorescence quantum yield (Φ) compared to 1 [2, 7]: ~20%

blue-shift of fluorescence emission during photobleaching due to dealkylation [1]: 9 nm
SMILES: O=C1OC2(c3ccc(N4CCC4)cc3Oc3cc(N4CCC4)ccc32)c2ccccc21 [Compound 15, reference compound]

singlet oxygen (1O2) quantum yield compared to nondeuterated parent [3]: significantly lower | photobleaching / in vitro photostability compared to nondeuterated parent [1]: no improvement | blue-shift of fluorescence emission during photobleaching due to dealkylation [1]: 4 nm | extinction coefficient (ε) compared to nondeuterated parent [2]: no improvement | fluorescence quantum yield (Φ) compared to nondeuterated parent [2]: no improvement
SMILES: [2H]C1([2H])N(c2ccc3c(-c4ccccc4C(=O)[O-])c4ccc(=[N+]5C([2H])([2H])C([2H])([2H])C5([2H])[2H])cc-4oc3c2)C([2H])([2H])C1([2H])[2H] [Compound 16, 2-(3,6-Bis(azetidin-1-yl-d6)xanthylium-9-yl)benzoate]

chromostability during bleaching [1]: higher | photobleaching / in vitro photostability compared to nondeuterated parent [1]: improved in vitro photostability | absorption and emission maxima / spectral shape compared to nondeuterated parent [2]: no change in spectral shape | intrinsic brightness (ε×Φ) [2]: equivalent brightness | extinction coefficient (ε) compared to nondeuterated parent [2]: increases | fluorescence quantum yield (Φ) compared to nondeuterated parent [2]: increases
SMILES: [2H]C1([2H])N(c2ccc3c(-c4ccccc4C(=O)[O-])c4ccc(=[N+]5C([2H])([2H])C([2H])([2H])C([2H])([2H])C5([2H])[2H])cc-4oc3c2)C([2H])([2H])C([2H])([2H])C1([2H])[2H] [Compound 18, 2-(3,6-Bis(pyrrolidin-1-yl-d8)xanthylium-9-yl)benzoate]

chromostability during bleaching [1]: higher | absorption and emission maxima / spectral shape compared to nondeuterated parent [2]: no change in spectral shape | extinction coefficient (ε) compared to nondeuterated parent [2]: increases | fluorescence quantum yield (Φ) compared to nondeuterated parent [2]: increases
SMILES: [2H]C1([2H])N(c2ccc3c(-c4ccccc4C(=O)[O-])c4ccc(=[N+]5C([2H])([2H])C([2H])([2H])C([2H])([2H])C([2H])([2H])C5([2H])[2H])cc-4oc3c2)C([2H])([2H])C([2H])([2H])C([2H])([2H])C1([2H])[2H] [Compound 20, 2-(3,6-Bis(piperidin-1-yl-d10)xanthylium-9-yl)benzoate]

absorption and emission maxima / spectral shape compared to nondeuterated parent [2]: no change in spectral shape | extinction coefficient (ε) compared to nondeuterated parent [2]: increases | fluorescence quantum yield (Φ) compared to nondeuterated parent [2]: increases
SMILES: [2H]C1([2H])OC([2H])([2H])C([2H])([2H])N(c2ccc3c(-c4ccccc4C(=O)[O-])c4ccc(=[N+]5C([2H])([2H])C([2H])([2H])OC([2H])([2H])C5([2H])[2H])cc-4oc3c2)C1([2H])[2H] [Compound 22, 2-(3,6-Bis(morpholino-d8)xanthylium-9-yl)benzoate]

SMILES: [2H]C1([2H])N(c2ccc3c(-c4cc(C(=O)NCCOCCOCCCCCCCl)ccc4C(=O)[O-])c4ccc(=[N+]5C([2H])([2H])C([2H])([2H])C5([2H])[2H])cc-4oc3c2)C([2H])([2H])C1([2H])[2H] [Compound 24, 2-(3,6-Bis(azetidin-1-yl-d6)xanthylium-9-yl)-4-((2-(2-((6-chlorohexyl)oxy)ethoxy)ethyl)carbamoyl)benzoate]
1O2 generation of HaloTag-bound ligand compared to nondeuterated ligand (HaloTag protein [4]): significantly suppressed | fluorescence lifetime (τ) of HaloTag conjugate in cells compared to nondeuterated ligand (histone H2B-HaloTag): longer | photostability in cells (average track length of individual molecules) (Sox2-HaloTag fusions): no improvement | brightness in cells (photons/s) (Sox2-HaloTag fusions): higher brightness | fluorescence quantum yield of HaloTag conjugate compared to nondeuterated ligand (HaloTag protein [5]): higher | labeling of HaloTag-histone H2B fusions in living cells [6]: could label

SMILES: [2H]C1([2H])N(c2ccc3c(-c4cc(C(=O)NCCOCCOCCCCCCCl)ccc4C(=O)[O-])c4ccc(=[N+]5C([2H])([2H])C([2H])([2H])C([2H])([2H])C5([2H])[2H])cc-4oc3c2)C([2H])([2H])C([2H])([2H])C1([2H])[2H] [Compound 25, 2-(3,6-Bis(pyrrolidin-1-yl-d8)xanthylium-9-yl)-4-((2-(2-((6-chlorohexyl)oxy)ethoxy)ethyl)carbamoyl)benzoate]
photostability in cells (average track length of individual molecules) (Sox2-HaloTag fusions): significantly longer tracks | brightness in cells (photons/s) (Sox2-HaloTag fusions): higher brightness | labeling of HaloTag-histone H2B fusions in living cells [6]: excellent live-cell label

extinction coefficient (ε) compared to nondeuterated parent [2]: substantial increases | fluorescence quantum yield (Φ) compared to nondeuterated parent [2]: substantial increases
SMILES: [2H]C1([2H])N(c2ccc3c(c2)C(C)(C)C2=CC(=[N+]4C([2H])([2H])C([2H])([2H])C4([2H])[2H])C=CC2=C3c2ccccc2C(=O)[O-])C([2H])([2H])C1([2H])[2H] [Compound 27, 2-(3,6-Bis(azetidin-1-yl-d6)-10,10-dimethylanthracen-9-ylium-9(10H)-yl)benzoate]

extinction coefficient (ε) compared to nondeuterated parent [2]: substantial increases | fluorescence quantum yield (Φ) compared to nondeuterated parent [2]: substantial increases
SMILES: [2H]C1([2H])N(c2ccc3c(c2)C(C)(C)C2=CC(=[N+]4C([2H])([2H])C([2H])([2H])C([2H])([2H])C4([2H])[2H])C=CC2=C3c2ccccc2C(=O)[O-])C([2H])([2H])C([2H])([2H])C1([2H])[2H] [Compound 29, 2-(10,10-Dimethyl-3,6-bis(pyrrolidin-1-yl-d8)anthracen-9-ylium-9(10H)-yl)benzoate]

SMILES: [2H]C1([2H])N(c2ccc3c(c2)[Si](C)(C)C2=CC(=[N+]4C([2H])([2H])C([2H])([2H])C4([2H])[2H])C=CC2=C3c2ccccc2C(=O)[O-])C([2H])([2H])C1([2H])[2H] [Compound 31, 2-(3,7-Bis(azetidin-1-yl-d6)-5,5-dimethyldibenzo[b,e]silin-10-ylium-10(5B)-yl)benzoate]
intrinsic brightness (ε×Φ) [2]: increase | extinction coefficient (ε) compared to nondeuterated parent [2]: modestly increased | fluorescence quantum yield (Φ) compared to nondeuterated parent [2]: did not elicit a large increase

SMILES: [2H]C1([2H])N(c2ccc3c(c2)[Si](C)(C)C2=CC(=[N+]4C([2H])([2H])C([2H])([2H])C([2H])([2H])C4([2H])[2H])C=CC2=C3c2ccccc2C(=O)[O-])C([2H])([2H])C([2H])([2H])C1([2H])[2H] [Compound 33, 2-(5,5-Dimethyl-3,7-bis(pyrrolidin-1-yl-d8)dibenzo[b,e]silin-10-ylium-10(5H)-yl)benzoate]
extinction coefficient (ε) compared to nondeuterated parent [2]: substantial increase | fluorescence quantum yield (Φ) compared to nondeuterated parent [2]: substantial increase

SMILES: [2H]C1([2H])N(c2ccc3c(c2)[Si](C)(C)C2=CC(=[N+]4C([2H])([2H])C([2H])([2H])C4([2H])[2H])C=CC2=C3c2cc(C(=O)NCCOCCOCCCCCCCl)ccc2C(=O)[O-])C([2H])([2H])C1([2H])[2H] [Compound 37, 2-(3,7-Bis(azetidin-1-yl-d6)-5,5-dimethyldibenzo[b,e]silin-10-ylium-10(51)-yl)-4-((2-(2-((6-chlorohexyl)oxy)ethoxy)ethyl)carbamoyl)benzoate]
1O2 generation of HaloTag-bound ligand compared to nondeuterated ligand (HaloTag protein [4]): lower | fluorescence lifetime (τ) of HaloTag conjugate in cells compared to nondeuterated ligand (histone H2B-HaloTag): increased | photostability in cells (average track length of individual molecules) (Sox2-HaloTag fusions): more photostable | brightness in cells (photons/s) (Sox2-HaloTag fusions): higher brightness | fluorescence quantum yield of HaloTag conjugate compared to nondeuterated ligand (HaloTag protein [5]): substantial increase | labeling of HaloTag-histone H2B fusions in living cells [6]: suitable labels

SMILES: [2H]C1([2H])N(c2ccc3c(c2)[Si](C)(C)C2=CC(=[N+]4C([2H])([2H])C([2H])([2H])C([2H])([2H])C4([2H])[2H])C=CC2=C3c2cc(C(=O)NCCOCCOCCCCCCCl)ccc2C(=O)[O-])C([2H])([2H])C([2H])([2H])C1([2H])[2H] [Compound 38, 4-((2-(2-((6-Chlorohexyl)oxy)ethoxy)ethyl)carbamoyl)-2-(5,5-dimethyl-3,7-bis(pyrrolidin-1-yl-d8)dibenzo[b,e]silin-10-ylium-10(5H)-yl)benzoate]
photostability in cells (average track length of individual molecules) (Sox2-HaloTag fusions): more photostable; also recorded: longest average single-molecule track length | brightness in cells (photons/s) (Sox2-HaloTag fusions): highest photons/s | labeling of HaloTag-histone H2B fusions in living cells [6]: improved cellular labeling

extinction coefficient (ε) compared to nondeuterated parent [2]: similar | fluorescence quantum yield (Φ) compared to nondeuterated parent [2]: small decrease
SMILES: [2H]C1([2H])N(c2ccc3c(C)cc(=O)oc3c2)C([2H])([2H])C1([2H])[2H] [Compound 40, 7-(Azetidin-1-yl-d6)-4-methyl-2H-chromen-2-one]

extinction coefficient (ε) compared to nondeuterated parent [2]: equivalent | fluorescence quantum yield (Φ) compared to nondeuterated parent [2]: significantly higher
SMILES: [2H]C1([2H])N(c2ccc3c(C)cc(=O)oc3c2)C([2H])([2H])C([2H])([2H])C1([2H])[2H] [Compound 42, 4-Methyl-7-(pyrrolidin-1-yl-d8)-2H-chromen-2-one]

SMILES: [2H]C1([2H])N(c2ccc3nc4ccc(=[N+]5C([2H])([2H])C([2H])([2H])C([2H])([2H])C5([2H])[2H])cc-4oc3c2)C([2H])([2H])C([2H])([2H])C1([2H])[2H] [Compound 44, 3,7-Bis(pyrrolidin-1-yl-d8)phenoxazin-5-ium trifluoroacetate]
fluorescence quantum yield (Φ) compared to nondeuterated parent [2]: substantial increase
